The record followed here is patent US6699686B1, “Modified nuclear glucocorticoid receptor, fusion protein, and DNA fragments coding for said receptor and said fusion protein” (Association pour le Development de la Recherche en …, priority 1996, dated 2004).

For one data set, the target named is T1, wild-type hGR (Homo sapiens, UniProt P04150).
T1 construct: expressed in transfected cells
T1 sequence (P04150 1-777): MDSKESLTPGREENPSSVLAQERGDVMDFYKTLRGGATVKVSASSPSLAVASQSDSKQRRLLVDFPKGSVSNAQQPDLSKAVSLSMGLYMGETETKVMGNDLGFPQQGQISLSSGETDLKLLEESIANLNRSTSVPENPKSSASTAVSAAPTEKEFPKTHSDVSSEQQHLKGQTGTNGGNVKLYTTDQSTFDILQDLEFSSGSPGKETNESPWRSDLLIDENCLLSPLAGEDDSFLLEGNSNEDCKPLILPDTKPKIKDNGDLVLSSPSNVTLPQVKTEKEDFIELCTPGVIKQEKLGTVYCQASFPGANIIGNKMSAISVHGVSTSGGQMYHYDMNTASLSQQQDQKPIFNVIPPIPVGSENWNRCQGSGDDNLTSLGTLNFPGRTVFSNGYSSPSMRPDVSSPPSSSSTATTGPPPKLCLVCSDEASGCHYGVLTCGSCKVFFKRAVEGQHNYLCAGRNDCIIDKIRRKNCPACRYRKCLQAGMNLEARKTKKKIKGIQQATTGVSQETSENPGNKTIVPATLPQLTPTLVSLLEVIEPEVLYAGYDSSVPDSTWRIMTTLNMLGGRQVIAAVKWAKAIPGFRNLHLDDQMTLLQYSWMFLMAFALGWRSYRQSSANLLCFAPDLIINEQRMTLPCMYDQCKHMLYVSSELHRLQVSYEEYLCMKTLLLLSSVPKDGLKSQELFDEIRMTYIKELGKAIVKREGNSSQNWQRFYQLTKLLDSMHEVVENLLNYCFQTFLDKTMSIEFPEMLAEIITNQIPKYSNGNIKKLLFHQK
As to the kind of experiment: Transcriptional activation of pTAT-tk-Luc luciferase reporter in transiently transfected CV-1 cells. It counts as cell-based. The following applies: for Luciferase activity % Wild type: 24 h ligand, mean of three independent assays; for EC50: ligand concentration giving 50% of maximum transcriptional response. Also on record: Luciferase activity % Wild type: concentration or dose not given beside the values. On the procedure: (§1) The receptors were transiently expressed in GR-free CV-1 cells, conjointly with a luciferase reporter gene under the control of the tyrosine aminotransferase promoter (pTAT-tk-Luc).
(§2) After transfection, the cells were incubated for 24 hours with increasing concentrations of Dex, and they were then subjected to an assay of the β-galactosidase and luciferase activities, as described in “Materials and Methods”. The luciferase activity was normalized with the β-galactosidase activity, and the value obtained in the absence of ligand was subtracted for each point. The results were expressed as a percentage of the maximum luciferase activity obtained for each receptor. Each point is the mean±standard deviation of the mean of four separate determinations carried out in duplicate. […] The [^3H] steroid attached was measured after treatment with dextran-coated charcoal. The results presented are those for a single assay carried out in duplicate and representative of three separate assays.
(§3) Co-transfections were carried out and dose-response curves were constructed as described in FIG. 2. […] The assays of luciferase and β-galactosidase activity were carried out as described in “Materials and Methods”. The mean values of three independent assays are given in this table. nm=not measurable.
(§4) The CV-1 and Cos-7 cells were cultured in Dulbeco's modified Eagle's medium (DMEM) containing 10% (v/v) of fetal calf serum (FCS) (Gibco, Grand Island, N.Y.), in a humidified atmosphere containing 5% CO2. The HeLa cells were cultured under the same conditions. Transient transfections were carried out in 6-well multiplates according to the calcium phosphate procedure already described (42). A reference recombinant plasmid, pCMV-βgal, expressing bacterial β-galactosidase, was transfected conjointly with the receptor expression vector and the corresponding reporter gene so as to correct possible variations in he transfection efficiency. The precipitate was removed by washing after 24 hours, and the cells were kept in DMEX without FCS but containing hormone. After another 24 hours, the cells were rinsed and lysed for 15 minutes with 0.3 ml of lysis buffer [25 mM Tris.phosphate, pH 7.8, 8 mM […], 1% Triton X100, 10% glycerol (48)]. The corresponding luciferase activity as determined on an aliquot fraction (0.1 ml), by evaluation of the luminescence peak (for an integration time of 15 seconds), after injection of 0.1 ml of 1 mM luciferin in an LKB luminometer. The β-galactosidase was determined by the method modified by Bocquel et al. (49), for controlling the efficiency of each transfection.
(§5) The reporter gene pTAT-tk-Luc was provided by D. Gagne and was constructed as follows: an intermediate plasmid pTAT was first generated by insertion of the 966 bp EcoRI-BamHI segment obtained from pKT531 [offered freely by T. Grande (50)] into the corresponding sites of the vector pUC19 (Pharmacia). The fragment containing the sequence coding for the firefly luciferase and the thymidine kinase (tk) minimal promoter obtained from the Herpes simplex virus was isolated in the form of a BamHI fragment from pvit-tk-Luc (51) and inserted, downstream of the TAT promoter, into the corresponding site of pTAT. The reporter plasmid pGRE-tk-Luc was constructed by ligation of the fragment of HindIII-BglII digestion of pGRE-tk-CAT (52), which contains a synthetic GRE (AGAACAcagTGTTCT) upstream of the tk minimal promoter, into the HindIII-BglII sites of pLuc (53). The reporter gene p(17M)5-βGlob-Luc has been previously described (54). The reporter plasmid p(17M)5-tata-Luc was constructed from the plasmid p(17M)5-tata-CAT (55) by digestion with XhoI-BamHI and isolation of the fragment containing (17M5)-tata. This fragment was then inserted into the vector pGL2 (Promega) digested with the same restriction enzymes.
In general terms: Reporter assays use an easily measured gene product as a stand-in for the process of interest.

The next data set concerns the target T2, hGR(I747/T) (Homo sapiens, UniProt P04150, I747T).
T2 construct: The same shift was observed as with the complete GR (I747/T) mutant; expressed in transfected cells
T2 sequence (P04150 1-777 I747T): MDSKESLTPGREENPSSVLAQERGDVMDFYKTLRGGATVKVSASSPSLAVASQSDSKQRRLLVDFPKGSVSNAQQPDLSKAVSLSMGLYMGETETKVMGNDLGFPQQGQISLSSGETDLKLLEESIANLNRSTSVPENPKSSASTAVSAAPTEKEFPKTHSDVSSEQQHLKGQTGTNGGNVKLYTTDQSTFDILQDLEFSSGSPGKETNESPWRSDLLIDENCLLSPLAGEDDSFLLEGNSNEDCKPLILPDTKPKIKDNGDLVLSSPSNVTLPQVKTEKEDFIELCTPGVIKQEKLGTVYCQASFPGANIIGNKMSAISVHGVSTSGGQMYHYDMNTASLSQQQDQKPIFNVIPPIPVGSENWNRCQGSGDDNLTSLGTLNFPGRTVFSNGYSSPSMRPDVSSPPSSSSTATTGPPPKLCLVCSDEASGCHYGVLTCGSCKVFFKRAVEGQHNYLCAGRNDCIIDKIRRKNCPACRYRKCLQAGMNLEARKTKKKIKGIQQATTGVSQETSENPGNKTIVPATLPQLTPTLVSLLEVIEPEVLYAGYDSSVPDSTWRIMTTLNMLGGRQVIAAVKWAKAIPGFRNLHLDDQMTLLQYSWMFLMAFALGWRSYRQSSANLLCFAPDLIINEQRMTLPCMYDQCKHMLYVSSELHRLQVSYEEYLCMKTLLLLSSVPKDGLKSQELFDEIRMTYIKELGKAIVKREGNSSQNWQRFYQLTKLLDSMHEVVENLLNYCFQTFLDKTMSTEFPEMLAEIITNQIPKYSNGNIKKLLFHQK
Described as above. It is filed as cell-based. Particulars: for transactivation by the I747/T mutant receptor compared with wild-type receptor / Luciferase activity % hGR (I747/T) / EC50: CV-1 cells, pTAT-tk-Luc; for Luciferase activity % hGR (I747/T): 24 h ligand, mean of three independent assays; for EC50: ligand concentration giving 50% of maximum transcriptional response; for % EC50: EC50 hGR(I747/T) relative to EC50 wild type. The method, then: as §1, §2, §3, §4, §5

For data set [1], the target named is wild-type glucocorticoid receptor (hGR) T747I (reversion to wild type) (Homo sapiens) (UniProt P04150). As to the kind of experiment: cell_activity. The following applies: EC50 is for dexamethasone; luciferase reporter in CV-1 cells.
The target in data set [2] is GR(I747/T) glucocorticoid receptor mutant (Homo sapiens) (UniProt P04150). The experiment in a line: cell_activity. Particulars: EC50 is for dexamethasone; luciferase reporter in CV-1 cells; cortisol 15% and corticosterone/aldosterone 0% activity.
In data set [3] the test system is Gal4(1-147)-GR(I747/T)(500-777) I747T (Saccharomyces cerevisiae / Homo sapiens). The experiment in a line: cell_activity. Particulars: EC50 is for dexamethasone; p(17M)5-βGlob-Luc in HeLa cells; 2e-7 M with tata-Luc.
For data set [4], the system named is Gal4(1-147)-GR(500-777) (Saccharomyces cerevisiae / Homo sapiens). The experiment in a line: cell_activity. Particulars: EC50 is for dexamethasone; p(17M)5-βGlob-Luc in HeLa cells; 2e-9 M with tata-Luc.
The target of data set [5] is T3, GR(I747/T) glucocorticoid receptor mutant (Homo sapiens, UniProt P04150 SEQ:1-777).
T3 chain: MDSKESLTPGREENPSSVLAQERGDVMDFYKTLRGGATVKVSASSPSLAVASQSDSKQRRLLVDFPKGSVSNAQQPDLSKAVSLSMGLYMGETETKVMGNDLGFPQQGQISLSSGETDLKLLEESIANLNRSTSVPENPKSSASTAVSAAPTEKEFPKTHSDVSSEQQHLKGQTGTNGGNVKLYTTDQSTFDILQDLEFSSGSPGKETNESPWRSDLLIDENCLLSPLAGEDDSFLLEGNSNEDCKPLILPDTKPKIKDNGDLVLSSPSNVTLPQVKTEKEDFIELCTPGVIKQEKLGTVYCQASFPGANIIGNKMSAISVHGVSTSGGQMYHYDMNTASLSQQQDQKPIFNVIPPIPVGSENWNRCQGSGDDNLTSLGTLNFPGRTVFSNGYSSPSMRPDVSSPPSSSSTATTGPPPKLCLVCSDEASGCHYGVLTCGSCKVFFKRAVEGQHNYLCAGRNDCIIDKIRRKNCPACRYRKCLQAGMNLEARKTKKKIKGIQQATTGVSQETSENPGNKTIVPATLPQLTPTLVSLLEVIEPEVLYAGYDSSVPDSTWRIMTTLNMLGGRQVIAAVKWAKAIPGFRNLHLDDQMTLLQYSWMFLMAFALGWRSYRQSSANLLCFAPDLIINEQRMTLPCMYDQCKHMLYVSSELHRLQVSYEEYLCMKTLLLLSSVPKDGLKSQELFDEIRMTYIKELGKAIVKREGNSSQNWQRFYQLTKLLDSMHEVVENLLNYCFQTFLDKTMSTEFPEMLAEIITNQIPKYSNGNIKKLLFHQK
The experiment in a line: cell_activity; EC50 is for dexamethasone; luciferase reporter in CV-1 cells. The method, then:
The $EC50$ values were determined graphically.
The HeLa cells were cultured under the same conditions.

The EC50 is the concentration needed to bring the measured effect to its halfway point. On to `CC1(C)O[C@@H]2C[C@H]3[C@@H]4C[C@H](F)C5=CC(=O)C=C[C@]5(C)[C@@]4(F)[C@@H](O)C[C@]3(C)[C@]2(C(=O)CO)O1` [Fluocinolone, fluocinolone acetonide], for which, on wild-type hGR, the “Luciferase activity % Wild type” value is 75% and it took 0.15 nM to reach a half-maximal effect (EC50). Besides, on hGR(I747/T), the “transactivation by the I747/T mutant receptor compared with wild-type receptor” value is “a higher activity”; the “Luciferase activity % hGR (I747/T)” value amounted to 100%; the midpoint of the response, the EC50, lay at 3 nM; the “% EC50” value turned out to be 20%.

Regarding TAT promoter (pTAT-tk-Luc), two GREs, the values for the EC50 in data set [1] and in data set [2] were 0.4 nM and 40 nM, respectively.

For `CC1(C)O[C@@H]2C[C@H]3[C@@H]4CCC5=CC(=O)C=C[C@]5(C)[C@@]4(F)[C@@H](O)C[C@]3(C)[C@]2(C(=O)CO)O1` [TA, triamcinolone acetonide], at wild-type hGR, the “Luciferase activity % Wild type” value was determined as 98% and the EC50 was found to be 0.5 nM. Also, at hGR(I747/T), the “Luciferase activity % hGR (I747/T)” value was 102% and the 50% effective concentration (EC50) was found to be 20 nM.

On to (17M)5 Gal4 response element, for which the 50% effective concentration (EC50) in data set [3] stood at 150 nM; in data set [4], 1.7 nM.

With `CC#C[C@]1(O)CC[C@H]2[C@@H]3C=C(C)C4=CC(=O)C=C[C@]4(C)[C@H]3[C@@H](O)C[C@@]21C` [RU28362], on wild-type hGR, the “Luciferase activity % Wild type” value came to 90% and the response was half-maximal at 0.3 nM (EC50). On hGR(I747/T), the “transactivation by the I747/T mutant receptor compared with wild-type receptor” value is on record as “the same transactivation as with the wild-type receptor”, the “Luciferase activity % hGR (I747/T)” value is on record as 88%, the EC50 stood at 7 nM and the “% EC50” value was determined as 23%.

Consider bimedrazol, for which, on wild-type hGR, the “Luciferase activity % Wild type” value is on record as 100% and the concentration giving a half-maximal response (EC50) was determined as 0.1 nM. Besides, on hGR(I747/T), the “transactivation by the I747/T mutant receptor compared with wild-type receptor” value was “a higher activity”, the “Luciferase activity % hGR (I747/T)” value was found to be 180%, the 50% effective concentration (EC50) stood at 2 nM and the “% EC50” value is reported as 20%.

B1: synthetic palindromic GRE (pGRE-tk-Luc) (dsDNA)
DNA 1: AGAACACAGTGTTCT
DNA 2: AGAACACTGTGTTCT
For B1, in data set [5], it took 20 nM to reach a half-maximal effect (EC50).
